Measurements taken from patent US20210189352A1, “ENHANCED REPROGRAMMING OF SOMATIC CELLS” (IMBA - INSTITUT FÜR MOLEKULARE BIOTECHNOLOGIE GMBH, priority 2017, published 2021).

Tested on: murine embryonic stem cell clone AN3-12
Test: Etoposide treatment of mouse ES cells (LD30 dose)
Assay type: cell-based
Conditions: 8 day treatment, medium supplemented every day
Procedure: A murine embryonic stem cell clone, derived from a derivative of HMSc2 termed AN3-12, with doxycycline inducible Cas9 (T3G-Cas9-IRES-mcherry PGK-GFP-rtTA) was used for this study. The following ES cell medium (ESCM) was used: 450 ml DMEM (Sigma D1152); 75 ml FCS (Invitrogen); 5.5 ml P/S (Sigma P0781); 5.5 ml NEAA (Sigma M7145); 5.5 ml LGlu (Sigma G7513); 5.5 ml NaPyr (Sigma S8636); 0.55 ml beta-mercapto ethanol (Merck 805740; dilute 10 μl bME in 2.85 ml PBS for a 1000× stock), 7.5 μl LIF (IMBA-MolBioService; 2 mg/ml). Cell culture-grade dishes were from Greiner (Greiner 15 cm 639160) and NUNC (all other formats, e.g. 10 cm dish Nunclon A Surface, cat no. 150350; 6-well Nunclon A Surface, cat no. 140675). Cells were trypsinized and replated every 2nd day and frozen in FCS:ESCM:DMSO=4.5:4.5:1. Cells were tested for mycoplasma every second week. Etoposide treatment: Medium was supplemented every day with 3.3 nM etoposide, an LD30 dose for 8 day treatment (Sigma E2600000), 1000× etoposide stocks dissolved in PBS-10% EtOH were used. For doxycycline treatment, medium was supplemented every day with 1 μg/ml (Sigma). Cells are tested for mycoplasma contamination every second week.

Question: Which LD30 dose does the source give for `COc1cc([C@@H]2c3cc4c(cc3[C@@H](O[C@@H]3O[C@@H]5CO[C@@H](C)O[C@H]5[C@H](O)[C@H]3O)[C@H]3COC(=O)[C@H]23)OCO4)cc(OC)c1O` [etoposide] here?
Answer: 3.3 nM
